# Measured values taken from patent publication US20250195483A1, “SPIRO PIPERIDINE DERIVATIVES AS INHIBITORS OF APOL1 AND METHODS OF USING SAME” (Vertex Pharmaceuticals Incorporated, priority 2022, published 2025).
# Target: T1, APOL1 (Homo sapiens, UniProt O14791)
# T1 sequence (O14791 1-398): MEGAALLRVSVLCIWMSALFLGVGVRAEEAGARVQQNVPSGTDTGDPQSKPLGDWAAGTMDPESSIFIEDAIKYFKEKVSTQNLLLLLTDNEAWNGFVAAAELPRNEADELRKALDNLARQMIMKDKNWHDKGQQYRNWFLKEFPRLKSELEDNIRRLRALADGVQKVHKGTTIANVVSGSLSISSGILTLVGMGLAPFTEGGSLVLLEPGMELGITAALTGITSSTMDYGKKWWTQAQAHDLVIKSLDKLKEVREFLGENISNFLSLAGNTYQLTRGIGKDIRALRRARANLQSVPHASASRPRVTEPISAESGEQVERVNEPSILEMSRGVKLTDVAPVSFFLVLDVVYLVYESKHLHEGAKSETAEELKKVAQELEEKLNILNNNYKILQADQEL
# Assay: MultiTox-Fluor Multiplex Cytotoxicity Assay, tet-inducible APOL1 T-REx-HEK293 cells (G0, G1 or G2 clone not specified for Table 20)
# Format: cell-based
# Details: tet-induced, 24 hours with compound, ratio of dead to live cells, read-out: IP50 (i.e., IC50 for cell proliferation)
# Summary of the method: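 HEK293 T-REx cells with tet-inducible APOL1 G0, G1 or G2 clone, 23,400/well, treated with tetracycline plus compound (top 10 μM, 10-point 3-fold, duplicate) for 24 h at 37° C. MultiTox-Fluor dead/live fluorescence ratio, normalized to no-tet (100% viability) and 50 ng/mL tet (0% viability) controls, then curve-fitted.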
row,SMILES,IC50 [nM]
1,CS(=O)(=O)c1ccc(CN2CCC3(CC2)OC(C(N)=O)c2ccc(Cl)cc23)cc1 (stereo not shown) [Compound 223],50 to 500
2,CS(=O)(=O)c1ccc(CN2CCC3(CC2)OC(C(N)=O)c2ccc(Cl)cc23)c(F)c1 (stereo not shown) [Compound 224],≥ 500
3,NC(=O)c1ccc(CN2CCC3(CC2)OC(C(N)=O)c2ccc(Cl)cc23)cc1 (stereo not shown) [Compound 225],≤ 50
4,"NC(=O)C1OC2(CCN(Cc3cn[nH]c3)CC2)c2cc(Cl)ccc21 (stereo not shown) [Compound 226, 5-chloro-1′-(1H-pyrazol-4-ylmethyl)spiro[1H-isobenzofuran-3,4′-piperidine]-1-carboxamide]",≤ 50
5,Cc1ccc(CN2CCC3(CC2)OC(C(N)=O)c2ccc(Cl)cc23)cn1 (stereo not shown) [Compound 227],≤ 50
6,NC(=O)C1OC2(CCN(Cc3cnn4cccnc34)CC2)c2cc(Cl)ccc21 (stereo not shown) [Compound 228],50 to 500
7,NC(=O)C1OC2(CCN(Cc3c[nH]c4ncncc34)CC2)c2cc(Cl)ccc21 (stereo not shown) [Compound 229],≥ 500
8,CN1C(=O)Cc2ccc(CN3CCC4(CC3)OC(C(N)=O)c3ccc(Cl)cc34)cc21 (stereo not shown) [Compound 230],≤ 50
9,Cc1cc2ncc(CN3CCC4(CC3)OC(C(N)=O)c3ccc(Cl)cc34)cn2n1 (stereo not shown) [Compound 231],50 to 500
10,NC(=O)C1OC2(CCN(Cc3c[nH]c4nccnc34)CC2)c2cc(Cl)ccc21 (stereo not shown) [Compound 232],≤ 50
11,CNC(=O)c1ccc(CN2CCC3(CC2)OC(C(N)=O)c2ccc(Cl)cc23)cc1 (stereo not shown) [Compound 233],≤ 50
12,NC(=O)C1OC2(CCN(Cc3cnc[nH]3)CC2)c2cc(Cl)ccc21 (stereo not shown) [Compound 234],≤ 50
13,NC(=O)C1OC2(CCN(Cc3cnn(C4CCOCC4)c3)CC2)c2cc(Cl)ccc21 (stereo not shown) [Compound 235],≤ 50
14,COCCn1cc(CN2CCC3(CC2)OC(C(N)=O)c2ccc(Cl)cc23)cn1 (stereo not shown) [Compound 236],50 to 500
15,Cc1noc2ncc(CN3CCC4(CC3)OC(C(N)=O)c3ccc(Cl)cc34)cc12 (stereo not shown) [Compound 237],50 to 500
16,NC(=O)C1OC2(CCN(Cc3cnc4c(c3)COCC4)CC2)c2cc(Cl)ccc21 (stereo not shown) [Compound 238],≥ 500
17,NC(=O)C1OC2(CCN(Cc3cnn(-c4cccnc4)c3)CC2)c2cc(Cl)ccc21 (stereo not shown) [Compound 239],≤ 50
18,NC(=O)c1cccc(CN2CCC3(CC2)OC(C(N)=O)c2ccc(Cl)cc23)c1F (stereo not shown) [Compound 240],≥ 500
19,CC1(n2cc(CN3CCC4(CC3)OC(C(N)=O)c3ccc(Cl)cc34)cn2)CCS(=O)(=O)C1 (stereo not shown) [Compound 241],≥ 500
20,NC(=O)C1OC2(CCN(Cc3cc(C4CC4)[nH]n3)CC2)c2cc(Cl)ccc21 (stereo not shown) [Compound 242],50 to 500
21,NC(=O)C1OC2(CCN(Cc3ccc(S(N)(=O)=O)cc3F)CC2)c2cc(Cl)ccc21 (stereo not shown) [Compound 243],50 to 500
22,CNc1ncc(CN2CCC3(CC2)OC(C(N)=O)c2ccc(Cl)cc23)cn1 (stereo not shown) [Compound 244],≤ 50

row,SMILES,IC50 [nM]
1,NC(=O)c1cnc(CN2CCC3(CC2)OC(C(N)=O)c2ccc(Cl)cc23)cn1 (stereo not shown) [Compound 245],50 to 500
2,COC(=O)c1ccc(CN2CCC3(CC2)OC(C(N)=O)c2ccc(Cl)cc23)cn1 (stereo not shown) [Compound 246],≤ 50
3,Cc1cc(CN2CCC3(CC2)OC(C(N)=O)c2ccc(Cl)cc23)nn1C (stereo not shown) [Compound 247],≥ 500
4,NC(=O)C1OC2(CCN(Cc3c[nH]c4cnccc34)CC2)c2cc(Cl)ccc21 (stereo not shown) [Compound 248],≤ 50
5,NC(=O)C1OC2(CCN(Cc3cc4n(n3)CCOC4)CC2)c2cc(Cl)ccc21 (stereo not shown) [Compound 249],≥ 500
6,COC(=O)c1ccc(CN2CCC3(CC2)OC(C(N)=O)c2ccc(Cl)cc23)nc1 (stereo not shown) [Compound 250],50 to 500
7,NC(=O)C1OC2(CCN(Cc3cnc(C4CC4)o3)CC2)c2cc(Cl)ccc21 (stereo not shown) [Compound 251],50 to 500
8,NC(=O)C1OC2(CCN(Cc3cncnc3)CC2)c2cc(Cl)ccc21 (stereo not shown) [Compound 252],≥ 500
9,Cn1cc(CN2CCC3(CC2)OC(C(N)=O)c2ccc(Cl)cc23)ccc1=O (stereo not shown) [Compound 253],50 to 500
10,NC(=O)C1OC2(CCN(Cc3cnn4c3NCCC4)CC2)c2cc(Cl)ccc21 (stereo not shown) [Compound 254],≥ 500
11,NC(=O)C1OC2(CCN(Cc3cocn3)CC2)c2cc(Cl)ccc21 (stereo not shown) [Compound 255],≥ 500
12,NC(=O)C1OC2(CCN(Cc3cnc(N)nc3)CC2)c2cc(Cl)ccc21 (stereo not shown) [Compound 256],50 to 500
13,NC(=O)C1OC2(CCN(Cc3cnn(C4CC4)c3N)CC2)c2cc(Cl)ccc21 (stereo not shown) [Compound 257],50 to 500
14,Cc1cc(CN2CCC3(CC2)OC(C(N)=O)c2ccc(Cl)cc23)on1 (stereo not shown) [Compound 258],≥ 500
15,NC(=O)C1OC2(CCN(Cc3ccno3)CC2)c2cc(Cl)ccc21 (stereo not shown) [Compound 259],≥ 500
16,Cc1ncc(CN2CCC3(CC2)OC(C(N)=O)c2ccc(Cl)cc23)o1 (stereo not shown) [Compound 260],50 to 500
17,Cc1cc(CN2CCC3(CC2)OC(C(N)=O)c2ccc(Cl)cc23)ccn1 (stereo not shown) [Compound 261],50 to 500
18,NC(=O)C1OC2(CCN(Cc3c[nH]c4ccncc34)CC2)c2cc(Cl)ccc21 (stereo not shown) [Compound 264],≥ 500
19,Cc1cc(CN2CCC3(CC2)OC(C(N)=O)c2ccc(Cl)cc23)no1 (stereo not shown) [Compound 265],≥ 500
20,NC(=O)c1cccc(CN2CCC3(CC2)OC(C(N)=O)c2ccc(Cl)cc23)c1 (stereo not shown) [Compound 266],≥ 500
21,CC(C)(C)c1ncc(CN2CCC3(CC2)OC(C(N)=O)c2ccc(Cl)cc23)cn1 (stereo not shown) [Compound 267],≥ 500
22,Cc1cccc(CN2CCC3(CC2)OC(C(N)=O)c2ccc(Cl)cc23)n1 (stereo not shown) [Compound 268],≥ 500

row,SMILES,IC50 [nM]
1,Cn1ccc(CN2CCC3(CC2)OC(C(N)=O)c2ccc(Cl)cc23)cc1=O (stereo not shown) [Compound 269],≥ 500
2,NC(=O)C1OC2(CCN(Cc3ccc[nH]c3=O)CC2)c2cc(Cl)ccc21 (stereo not shown) [Compound 270],≥ 500
3,Cn1cc(CN2CCC3(CC2)OC(C(N)=O)c2ccc(Cl)cc23)c(=O)n(C)c1=O (stereo not shown) [Compound 271],≥ 500
4,NC(=O)C1OC2(CCN(Cc3cnccn3)CC2)c2cc(Cl)ccc21 (stereo not shown) [Compound 272],≥ 500
5,Cn1cnc(CN2CCC3(CC2)OC(C(N)=O)c2ccc(Cl)cc23)c1 (stereo not shown) [Compound 273],≥ 500
6,NC(=O)C1OC2(CCN(Cc3ccc(F)c(S(N)(=O)=O)c3)CC2)c2cc(Cl)ccc21 (stereo not shown) [Compound 274],≥ 500
7,Cc1c(CN2CCC3(CC2)OC(C(N)=O)c2ccc(Cl)cc23)cnn1C (stereo not shown) [Compound 275],≥ 500
8,Cc1nc(C)c(CN2CCC3(CC2)OC(C(N)=O)c2ccc(Cl)cc23)o1 (stereo not shown) [Compound 276],≥ 500
9,"CC(C)(O)[C@@H](O)Cn1cc(CN2CCC3(CC2)OC(C(N)=O)c2ccc(Cl)cc23)cn1 (stereo partly drawn) [Compound 277, 5-chloro-1′-[[1-[(2S)-2,3-dihydroxy-3-methyl-butyl]pyrazol-4-yl]methyl]spiro[1H-isobenzofuran-3,4′-piperidine]-1-carboxamide]",≤ 50
10,"CC(C)(O)[C@H](O)Cn1cc(CN2CCC3(CC2)OC(C(N)=O)c2ccc(Cl)cc23)cn1 (stereo partly drawn) [Compound 278, 5-chloro-1′-[[1-[(2R)-2,3-dihydroxy-3-methyl-butyl]pyrazol-4-yl]methyl]spiro[1H-isobenzofuran-3,4′-piperidine]-1-carboxamide]",≤ 50
11,"CC(CO)(CO)Cn1cc(CN2CCC3(CC2)OC(C(N)=O)c2ccc(Cl)cc23)cn1 (stereo not shown) [Compound 279, 5-chloro-1′-[[1-[3-hydroxy-2-(hydroxymethyl)-2-methyl-propyl]pyrazol-4-yl]methyl]spiro[1H-isobenzofuran-3,4′-piperidine]-1-carboxamide]",≤ 50
12,"NC(=O)C1OC2(CCN(Cc3cnn(CC(O)C4(O)CCC4)c3)CC2)c2cc(Cl)ccc21 (stereo not shown) [Compound 280, 5-chloro-1′-[[1-[2-hydroxy-2-(1-hydroxycyclobutyl)ethyl]pyrazol-4-yl]methyl]spiro[1H-isobenzofuran-3,4′-piperidine]-1-carboxamide]",≤ 50
13,NC(=O)C1OC2(CCN(Cc3cnn(CC(O)C4(O)CCOCC4)c3)CC2)c2cc(Cl)ccc21 (stereo not shown) [Compound 281],≤ 50
14,NC(=O)C1OC2(CCN(Cc3cnn(CC4(O)CCS(=O)(=O)CC4)c3)CC2)c2cc(Cl)ccc21 (stereo not shown) [Compound 282],≤ 50
15,NC(=O)C1OC2(CCN(Cc3cnn(C[C@@H](O)CO)c3)CC2)c2cc(Cl)ccc21 (stereo partly shown) [Compound 283],50 to 500
16,CN(C)C(=O)Cn1cc(CN2CCC3(CC2)OC(C(N)=O)c2ccc(Cl)cc23)cn1 (stereo not shown) [Compound 284],50 to 500
17,NC(=O)Cn1cc(CN2CCC3(CC2)OC(C(N)=O)c2ccc(Cl)cc23)cn1 (stereo not shown) [Compound 285],50 to 500
18,"Cc1ccc2c(c1)C1(CCN(Cc3cnn(C)c3)CC1)OC2 [Compound 286, 5-methyl-1′-[(1-methylpyrazol-4-yl)methyl]spiro[1H-isobenzofuran-3,4′-piperidine]]",≥ 500
19,"Cc1ccc2c(c1)C1(CCN(Cc3ccc(OCC(C)(C)N)nc3)CC1)OC2(C)C [Compound 288, 2-methyl-1-[[5-[(1,1,5-trimethylspiro[isobenzofuran-3,4′-piperidine]-1′-yl)methyl]-2-pyridyl]oxy]propan-2-amine]",50 to 500
20,"Cc1ccc2c(c1)C1(CCN(Cc3cnn(CCS(C)(=O)=O)c3)CC1)OC2(C)C [Compound 289, 1,1,5-trimethyl-1′-[[1-(2-methylsulfonylethyl)pyrazol-4-yl]methyl]spiro[isobenzofuran-3,4′-piperidine]]",≥ 500
